Assay results: ChEMBL document CHEMBL4371067, “Discovery of N-substituted 7-azaindoles as Pan-PIM kinases inhibitors - Lead optimization - Part III” (Bioorg Med Chem Lett, 2019)
Values after ≈ are worked out from the molar mass of the structure shown.

Assays:
[1] = AUC (0 to infinity) in rat at 10 mg/kg, po administered as single dose; format: ADME, organism-based; parameters: dose 10 mg/kg, route oral, time infinity; conditions: in vivo
[2] = target: Glycogen synthase kinase-3 beta (Homo sapiens) (UniProt P49841); experiment: Inhibition of GSK3beta (unknown origin) at 1 uM relative to control
[3] = Cmax in nude mouse xenografted with human KG1 cells at 25 mg/kg, po bid for 18 days measured at 8 hrs post last dose; format: ADME, organism-based; parameters: dose 25 mg/kg, route oral; conditions: in vivo
[4] = Clearance in mouse liver microsomes assessed as drug extraction at 5 uM; format: ADME, Microsome; conditions: liver microsomes, read-out: CLH
[5] = target: Glycogen synthase kinase-3 alpha (Homo sapiens) (UniProt P49840); experiment: Inhibition of GSK3alpha (unknown origin) at 0.1 uM relative to control
[6] = Plasma concentration in mouse xenografted with human KG1 cells at 25 mg/kg, po administered as single dose and measured at 8 hrs post dose; format: ADME, organism-based
[7] = Drug uptake in tumor of mouse xenografted with human KG1 cells at 25 mg/kg, po administered as single dose and measured at 24 hrs post dose; format: ADME, organism-based, Neoplasm; conditions: read-out: Drug uptake
[8] = target: Ribosomal protein S6 kinase alpha-2 (Homo sapiens) (UniProt Q15349); experiment: Inhibition of RSK3 (unknown origin) at 1 uM relative to control
[9] = target: Cyclin-dependent kinase 5 (Homo sapiens) (UniProt Q00535); experiment: Inhibition of CDK5 (unknown origin) at 0.1 uM relative to control
[10] = target: Cyclin-dependent kinase 5 (Homo sapiens) (UniProt Q00535); experiment: Inhibition of CDK5 (unknown origin) at 1 uM relative to control
[11] = target: T1, Dual specificity tyrosine-phosphorylation-regulated kinase 3 (Homo sapiens) (UniProt O43781); experiment: Inhibition of DYRK3 (unknown origin) at 0.1 uM relative to control
T1 sequence (whole entry): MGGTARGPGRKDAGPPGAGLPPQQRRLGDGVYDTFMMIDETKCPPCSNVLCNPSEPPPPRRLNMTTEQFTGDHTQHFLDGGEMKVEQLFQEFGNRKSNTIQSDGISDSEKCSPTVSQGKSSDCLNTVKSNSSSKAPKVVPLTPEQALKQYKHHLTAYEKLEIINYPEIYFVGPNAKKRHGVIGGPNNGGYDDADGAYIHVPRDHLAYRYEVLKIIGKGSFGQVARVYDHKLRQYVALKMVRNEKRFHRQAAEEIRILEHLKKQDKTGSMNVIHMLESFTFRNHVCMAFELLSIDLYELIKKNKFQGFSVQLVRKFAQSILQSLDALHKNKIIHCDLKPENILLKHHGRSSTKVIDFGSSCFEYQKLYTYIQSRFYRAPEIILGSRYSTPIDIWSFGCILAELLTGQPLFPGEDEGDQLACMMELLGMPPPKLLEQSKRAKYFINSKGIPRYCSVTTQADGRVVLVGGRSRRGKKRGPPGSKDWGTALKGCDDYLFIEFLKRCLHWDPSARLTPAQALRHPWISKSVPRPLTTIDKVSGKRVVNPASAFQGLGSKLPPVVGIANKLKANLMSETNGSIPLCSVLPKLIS

[12] = AUC (0 to infinity) in rat at 3 mg/kg, iv administered as single dose; format: ADME, organism-based; parameters: dose 3 mg/kg, route intravenous, time infinity; conditions: in vivo
[13] = target: Serine/threonine-protein kinase pim-2 (Homo sapiens, UniProt Q9P1W9); experiment: Inhibition of PIM2 (unknown origin) assessed as reduction in BAD phosphorylation at Ser-112 residue by TR-FRET assay
[14] = target: Glycogen synthase kinase-3 beta (Homo sapiens) (UniProt P49841); experiment: Inhibition of GSK3beta (unknown origin) at 0.1 uM relative to control
[15] = Clearance in human liver microsomes assessed as drug extraction at 5 uM; format: ADME, Microsome; conditions: liver microsomes, read-out: CLH
[16] = target: Ribosomal protein S6 kinase alpha-2 (Homo sapiens) (UniProt Q15349); experiment: Inhibition of RSK3 (unknown origin) at 0.1 uM relative to control
[17] = target: Cyclin-dependent kinase 1 (Homo sapiens) (UniProt P06493); experiment: Inhibition of CDK1 (unknown origin) at 0.1 uM relative to control
KG-1 [18] = experiment: Antitumor activity against human KG1 cells xenografted in nude mouse assessed as tumor growth at 25 mg/kg, po bid for 18 days relative to control; format: functional
[19] = target: Cyclin-dependent kinase 1 (Homo sapiens) (UniProt P06493); experiment: Inhibition of CDK1 (unknown origin) at 1 uM relative to control
[20] = Volume of distribution at steady state in rat at 3 mg/kg, iv administered as single dose; format: ADME, organism-based; conditions: in vivo, read-out: Vdss
KG-1 [21] = experiment: Antiproliferative activity against human KG1 cells; format: functional, cell-based; conditions: Homo sapiens, KG-1
KG-1 [22] = experiment: Antitumor activity against human KG1 cells xenografted in nude mouse assessed as tumor growth at 50 mg/kg, po bid for 18 days relative to control; format: functional
[23] = Thermodynamic solubility in pH 7.4 solution; format: physicochemical; conditions: buffer, read-out: Therm_solubility
[24] = target: Serine/threonine-protein kinase PIM (Homo sapiens, UniProt P11309+Q9P1W9+Q86V86); experiment: Inhibition of PIM in human KG1 cells assessed as reduction in pS6 level; format: cell-based
[25] = Drug uptake in tumor of mouse xenografted with human KG1 cells at 25 mg/kg, po administered as single dose and measured at 8 hrs post dose; format: ADME, organism-based, Neoplasm; conditions: read-out: Drug uptake
KG-1 [26] = experiment: Antitumor activity against human KG1 cells xenografted in nude mouse assessed as tumor growth at 12.5 mg/kg, po bid for 18 days relative to control; format: functional
[27] = Half life in rat at 3 mg/kg, iv administered as single dose; format: ADME, organism-based; conditions: in vivo
[28] = Toxicity in nude mouse xenografted with human KG1 cells assessed as body weight loss at 12.5 to 50 mg/kg, po bid for 18 days relative to control; format: organism-based; conditions: in vivo, 432 h
[29] = target: Voltage-gated inwardly rectifying potassium channel KCNH2 (Homo sapiens, UniProt Q12809); experiment: Inhibition of human ERG
[30] = target: Serine/threonine-protein kinase pim-1 (Homo sapiens, UniProt P11309); experiment: Inhibition of PIM1 (unknown origin) assessed as reduction in BAD phosphorylation at Ser-112 residue by TR-FRET assay
[31] = Clearance in rat at 3 mg/kg, iv administered as single dose; format: ADME, organism-based; conditions: in vivo
[32] = target: Cyclin-dependent kinase 2 (Homo sapiens) (UniProt P24941); experiment: Inhibition of CDK2 (unknown origin) at 0.1 uM relative to control
[33] = target: Cyclin-dependent kinase 3 (Homo sapiens) (UniProt Q00526); experiment: Inhibition of CDK3 (unknown origin) at 1 uM relative to control
[34] = Half life in rat at 10 mg/kg, po administered as single dose; format: ADME, organism-based; conditions: in vivo
[35] = Cmax in nude mouse xenografted with human KG1 cells at 12.5 mg/kg, po bid for 18 days measured at 8 hrs post last dose; format: ADME, organism-based; parameters: dose 12.5 mg/kg, route oral; conditions: in vivo
[36] = target: Cyclin-dependent kinase 3 (Homo sapiens) (UniProt Q00526); experiment: Inhibition of CDK3 (unknown origin) at 0.1 uM relative to control
Mus musculus [37] = experiment: In vivo inhibition of PIM in mouse xenografted with human KG1 cells assessed as reduction in phosphorylated BAD level at 25 mg/kg, po administered as single dose and measured up to 24 hrs post dose relative to control; format: functional; conditions: KG-1, po
[38] = Protein binding in mouse plasma; format: ADME, cell-free; conditions: read-out: PPB (converted)
[39] = Cmax in nude mouse xenografted with human KG1 cells at 50 mg/kg, po bid for 18 days measured at 8 hrs post last dose; format: ADME, organism-based; parameters: dose 50 mg/kg, route oral; conditions: in vivo
[40] = target: Cyclin-dependent kinase 2 (Homo sapiens) (UniProt P24941); experiment: Inhibition of CDK2 (unknown origin) at 1 uM relative to control
[41] = target: T1, Dual specificity tyrosine-phosphorylation-regulated kinase 3 (Homo sapiens); experiment: Inhibition of DYRK3 (unknown origin) at 1 uM relative to control
[42] = Cmax in rat at 10 mg/kg, po administered as single dose; format: ADME, organism-based; parameters: dose 10 mg/kg, route oral; conditions: in vivo
[43] = Plasma concentration in mouse xenografted with human KG1 cells at 25 mg/kg, po administered as single dose and measured at 24 hrs post dose; format: ADME, organism-based
[44] = Oral bioavailability in rat at 10 mg/kg administered as single dose; format: ADME, organism-based; conditions: in vivo
[45] = target: Glycogen synthase kinase-3 alpha (Homo sapiens) (UniProt P49840); experiment: Inhibition of GSK3alpha (unknown origin) at 1 uM relative to control
[46] = Permeability in human Caco2/TC7 cells at 5 uM; format: ADME, cell-based; conditions: Caco-2, read-out: permeability
Mus musculus [47] = experiment: In vivo inhibition of PIM in mouse xenografted with human KG1 cells assessed as reduction in phosphorylated BAD level at 25 mg/kg, po administered as single dose and measured at 8 hrs post dose relative to control; format: functional; conditions: KG-1, po

- AUC(0-inf) [1]: 643 ng·h/mL
- inhibition [2]: 90%
- Cmax [3]: 320 nM
- hepatic extraction ratio at 5 µM [4]: 0.5
- inhibition [5]: 23%
- concentration at 8 h [6]: 920 nM
- concentration at 24 h [7]: 7900 nM
- inhibition [8]: 54%
- inhibition [9]: 88%
- inhibition [10]: 89%
- inhibition [11]: 15%
- AUC(0-inf) [12]: 405 ng·h/mL
- IC50 [13]: 5.1 nM
- inhibition [14]: 48%
- hepatic extraction ratio at 5 µM [15]: 0.23
- inhibition [16]: 20%
- inhibition [17]: 14%
- inhibition [19]: 51%
- Vd [20]: 18.6 L/kg
- solubility thermodynamic [23]: 86 µM (≈ 34 µg/mL)
- EC50 [24]: 27 nM
- concentration at 8 h [25]: 24000 nM
- half-life [27]: 2.75 h
- IC50 [30]: 0.8 nM
- Ki [30]: 0.4 nM
- clearance [31]: 113 mL/min/kg
- inhibition [32]: 26%
- inhibition [33]: 73%
- half-life [34]: 3.59 h
- Cmax [35]: 140 nM
- inhibition [36]: 24%
- fraction unbound [38]: 0.02
- Cmax [39]: 520 nM
- inhibition [40]: 71%
- inhibition [41]: 68%
- Cmax [42]: 92 ng/mL
- concentration at 24 h [43]: 60 nM
- bioavailability [44]: 46%
- inhibition [45]: 81%
- Papp at 5 µM [46]: 4.1 ×10⁻⁶ cm/s
Compound: COCCC#Cc1c(Cl)c2c(Cl)cc(C(N)=O)nc2n1[C@H]1CCCNC1
- T/C (KG-1 [18]): 56%
- EC50 (KG-1 [21]): 39 nM
- T/C (KG-1 [22]): 33%
- T/C (KG-1 [26]): 60%
- Activity [28]: < 10%
- IC50 [29]: 3000 nM
- inhibition in vivo at 25 mg/kg (Mus musculus [37]): 56%
- inhibition in vivo at 25 mg/kg (Mus musculus [47]): ≤ 64%
